Experimental data: article PMC8213057, “Targeting ALK2: An Open Science Approach to Developing Therapeutics for the Treatment of Diffuse Intrinsic Pontine Glioma” (Journal of Medicinal Chemistry, 2020)

Tests used:
CK1g2 = CK1g2 (Homo sapiens, UniProt P78368); assay: biochemical; conditions: read-out: % enzyme activity, 1 μM; Run 1, Run 2
MSK1/RPS6KA5 = MSK1/RPS6KA5 (Homo sapiens, UniProt O75582); assay: biochemical; conditions: read-out: % enzyme activity, 1 μM; Run 1, Run 2
FYN = FYN (Homo sapiens, UniProt P06241); conditions: 1 μM; Run 1, Run 2
GRK5 = GRK5 (Homo sapiens, UniProt P34947); conditions: 1 μM; Run 1, Run 2
PKA = PKA (Homo sapiens, UniProt P17612); assay: biochemical; conditions: read-out: % enzyme activity, 1 μM; Run 1, Run 2
CK1epsilon = CK1epsilon (Homo sapiens, UniProt P49674); assay: biochemical; conditions: read-out: % enzyme activity, 1 μM; Run 1, Run 2
GRK6 = GRK6 (Homo sapiens, UniProt P43250); assay: biochemical; conditions: read-out: % enzyme activity, 1 μM; Run 1, Run 2
PDGFRa = PDGFRa (Homo sapiens, UniProt P16234); conditions: 1 μM; Run 1, Run 2
PKAcg = PKAcg (Homo sapiens, UniProt P22612); assay: biochemical; conditions: read-out: % enzyme activity, 1 μM; Run 1, Run 2
SGK2 = SGK2 (Homo sapiens, UniProt Q9HBY8); conditions: 1 μM; Run 1, Run 2
ALK4/ACVR1B = molecular target: T1, ALK4/ACVR1B (Homo sapiens, UniProt P36896); assay: 375-member kinase panel; type: biochemical; conditions: Run 1, Run 2; for % enzyme activity: 1 μM; for remaining activity at 1 µM: read-out: % enzyme activity, 1 μM
T1 construct: purchased Reaction Biology Corporation
T1 sequence (P36896 24-505): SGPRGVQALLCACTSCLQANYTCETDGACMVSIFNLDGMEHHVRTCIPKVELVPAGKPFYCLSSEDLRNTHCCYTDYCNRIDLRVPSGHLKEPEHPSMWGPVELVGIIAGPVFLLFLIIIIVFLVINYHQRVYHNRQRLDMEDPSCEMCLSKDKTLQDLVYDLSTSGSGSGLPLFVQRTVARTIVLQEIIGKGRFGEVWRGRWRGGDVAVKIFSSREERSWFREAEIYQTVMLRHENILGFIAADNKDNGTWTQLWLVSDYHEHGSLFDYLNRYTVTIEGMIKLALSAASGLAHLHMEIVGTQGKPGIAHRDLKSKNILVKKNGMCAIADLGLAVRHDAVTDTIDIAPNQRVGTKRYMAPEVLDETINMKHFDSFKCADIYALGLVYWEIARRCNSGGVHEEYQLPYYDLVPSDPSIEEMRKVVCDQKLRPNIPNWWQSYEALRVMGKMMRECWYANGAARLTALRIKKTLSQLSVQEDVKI

GCK/MAP4K2 = molecular target: T2, GCK/MAP4K2 (Homo sapiens, UniProt Q12851); assay: biochemical; conditions: read-out: % enzyme activity, 1 μM; Run 1, Run 2
T2 sequence (Q12851 1-820): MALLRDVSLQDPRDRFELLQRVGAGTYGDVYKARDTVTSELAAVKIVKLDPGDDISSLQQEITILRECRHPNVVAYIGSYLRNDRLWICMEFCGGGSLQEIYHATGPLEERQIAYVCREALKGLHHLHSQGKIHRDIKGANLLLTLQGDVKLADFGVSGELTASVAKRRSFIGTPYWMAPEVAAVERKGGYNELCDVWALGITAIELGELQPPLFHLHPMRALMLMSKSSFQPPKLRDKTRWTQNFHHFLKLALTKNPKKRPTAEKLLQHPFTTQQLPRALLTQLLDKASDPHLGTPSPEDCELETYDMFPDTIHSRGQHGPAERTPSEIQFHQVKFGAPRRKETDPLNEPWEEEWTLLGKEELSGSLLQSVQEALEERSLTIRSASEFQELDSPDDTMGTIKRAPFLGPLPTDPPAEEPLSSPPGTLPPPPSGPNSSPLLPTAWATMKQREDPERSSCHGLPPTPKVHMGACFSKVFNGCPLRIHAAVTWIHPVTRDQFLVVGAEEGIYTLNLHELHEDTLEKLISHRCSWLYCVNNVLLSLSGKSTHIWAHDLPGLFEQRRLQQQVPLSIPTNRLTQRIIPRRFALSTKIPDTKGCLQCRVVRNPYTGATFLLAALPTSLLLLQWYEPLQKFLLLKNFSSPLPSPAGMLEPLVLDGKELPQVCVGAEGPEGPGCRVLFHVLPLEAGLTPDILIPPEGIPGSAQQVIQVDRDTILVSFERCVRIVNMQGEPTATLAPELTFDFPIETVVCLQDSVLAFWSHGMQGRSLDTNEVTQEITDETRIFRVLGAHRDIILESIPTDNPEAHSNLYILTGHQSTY

PKCzeta = molecular target: T3, PKCzeta (Homo sapiens, UniProt Q05513); assay: biochemical; conditions: read-out: % enzyme activity, 1 μM; Run 1, Run 2
T3 sequence (Q05513 1-592): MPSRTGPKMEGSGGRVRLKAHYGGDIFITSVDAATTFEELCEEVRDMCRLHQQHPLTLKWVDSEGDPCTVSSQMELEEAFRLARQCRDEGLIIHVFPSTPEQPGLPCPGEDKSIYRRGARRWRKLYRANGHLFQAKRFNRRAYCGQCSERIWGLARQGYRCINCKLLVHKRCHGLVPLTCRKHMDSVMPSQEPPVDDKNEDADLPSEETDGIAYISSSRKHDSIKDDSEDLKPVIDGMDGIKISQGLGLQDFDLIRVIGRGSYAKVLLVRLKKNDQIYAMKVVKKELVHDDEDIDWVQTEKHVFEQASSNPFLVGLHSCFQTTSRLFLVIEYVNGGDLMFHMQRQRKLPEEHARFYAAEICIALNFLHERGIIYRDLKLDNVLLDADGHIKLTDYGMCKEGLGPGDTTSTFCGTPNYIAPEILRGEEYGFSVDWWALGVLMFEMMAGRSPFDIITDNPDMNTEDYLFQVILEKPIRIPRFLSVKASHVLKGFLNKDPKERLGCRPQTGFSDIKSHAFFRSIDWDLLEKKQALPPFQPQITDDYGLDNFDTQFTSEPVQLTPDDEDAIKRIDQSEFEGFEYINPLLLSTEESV

JNK3 = JNK3 (Homo sapiens, UniProt P53779); conditions: 1 μM; Run 1, Run 2
Sequence of JNK3 (P53779 whole entry): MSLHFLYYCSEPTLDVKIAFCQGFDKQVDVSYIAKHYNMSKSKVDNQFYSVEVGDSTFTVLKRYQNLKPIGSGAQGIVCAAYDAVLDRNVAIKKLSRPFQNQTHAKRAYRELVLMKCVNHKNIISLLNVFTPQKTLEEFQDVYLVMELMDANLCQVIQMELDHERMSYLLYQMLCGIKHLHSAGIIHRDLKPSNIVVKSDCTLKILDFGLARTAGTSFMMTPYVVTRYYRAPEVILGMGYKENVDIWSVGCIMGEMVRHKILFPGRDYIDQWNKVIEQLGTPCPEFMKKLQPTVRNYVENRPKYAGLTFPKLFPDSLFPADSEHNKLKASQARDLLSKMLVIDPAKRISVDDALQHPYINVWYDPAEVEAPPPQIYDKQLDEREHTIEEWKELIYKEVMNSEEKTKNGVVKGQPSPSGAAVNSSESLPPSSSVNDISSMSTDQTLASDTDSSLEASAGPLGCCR

Sequence of SGK2 (Q9HBY8 whole entry): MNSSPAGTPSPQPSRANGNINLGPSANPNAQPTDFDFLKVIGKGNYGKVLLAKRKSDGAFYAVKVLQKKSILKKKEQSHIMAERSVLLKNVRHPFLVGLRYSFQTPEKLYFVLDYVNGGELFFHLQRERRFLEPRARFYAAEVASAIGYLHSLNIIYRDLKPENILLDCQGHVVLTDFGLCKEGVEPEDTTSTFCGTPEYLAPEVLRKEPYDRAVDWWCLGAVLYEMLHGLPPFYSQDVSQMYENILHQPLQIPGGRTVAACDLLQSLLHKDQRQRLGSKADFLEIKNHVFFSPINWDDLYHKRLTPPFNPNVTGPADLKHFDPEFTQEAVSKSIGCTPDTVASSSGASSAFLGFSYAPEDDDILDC
Sequence of GRK5 (P34947 whole entry): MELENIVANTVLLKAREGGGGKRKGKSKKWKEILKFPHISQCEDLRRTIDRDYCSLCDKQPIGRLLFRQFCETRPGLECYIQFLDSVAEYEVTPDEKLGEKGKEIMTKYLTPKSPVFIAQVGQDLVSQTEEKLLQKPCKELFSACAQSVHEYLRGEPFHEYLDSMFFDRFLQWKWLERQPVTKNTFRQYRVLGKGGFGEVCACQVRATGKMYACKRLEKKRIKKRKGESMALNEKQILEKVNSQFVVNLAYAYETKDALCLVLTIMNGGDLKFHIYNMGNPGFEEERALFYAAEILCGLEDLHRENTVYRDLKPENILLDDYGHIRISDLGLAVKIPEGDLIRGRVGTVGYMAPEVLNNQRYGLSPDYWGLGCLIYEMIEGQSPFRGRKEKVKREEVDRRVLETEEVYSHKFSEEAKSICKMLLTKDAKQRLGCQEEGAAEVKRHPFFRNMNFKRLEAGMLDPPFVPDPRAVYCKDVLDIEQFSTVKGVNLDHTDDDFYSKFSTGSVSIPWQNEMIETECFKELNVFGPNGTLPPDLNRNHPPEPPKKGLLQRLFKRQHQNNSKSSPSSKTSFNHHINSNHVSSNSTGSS
Sequence of CK1epsilon (P49674 whole entry): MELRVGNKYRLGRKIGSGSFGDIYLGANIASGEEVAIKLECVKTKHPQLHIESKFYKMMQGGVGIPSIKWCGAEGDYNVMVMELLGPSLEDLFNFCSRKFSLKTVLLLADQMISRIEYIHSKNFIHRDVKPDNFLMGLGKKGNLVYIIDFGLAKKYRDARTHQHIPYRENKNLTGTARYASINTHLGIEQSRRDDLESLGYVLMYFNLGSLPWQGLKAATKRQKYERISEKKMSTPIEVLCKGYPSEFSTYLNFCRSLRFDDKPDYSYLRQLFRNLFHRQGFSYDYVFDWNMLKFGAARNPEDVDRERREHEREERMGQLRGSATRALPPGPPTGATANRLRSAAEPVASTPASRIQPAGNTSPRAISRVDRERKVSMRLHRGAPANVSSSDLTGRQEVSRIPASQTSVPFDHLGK
Sequence of GRK6 (P43250 whole entry): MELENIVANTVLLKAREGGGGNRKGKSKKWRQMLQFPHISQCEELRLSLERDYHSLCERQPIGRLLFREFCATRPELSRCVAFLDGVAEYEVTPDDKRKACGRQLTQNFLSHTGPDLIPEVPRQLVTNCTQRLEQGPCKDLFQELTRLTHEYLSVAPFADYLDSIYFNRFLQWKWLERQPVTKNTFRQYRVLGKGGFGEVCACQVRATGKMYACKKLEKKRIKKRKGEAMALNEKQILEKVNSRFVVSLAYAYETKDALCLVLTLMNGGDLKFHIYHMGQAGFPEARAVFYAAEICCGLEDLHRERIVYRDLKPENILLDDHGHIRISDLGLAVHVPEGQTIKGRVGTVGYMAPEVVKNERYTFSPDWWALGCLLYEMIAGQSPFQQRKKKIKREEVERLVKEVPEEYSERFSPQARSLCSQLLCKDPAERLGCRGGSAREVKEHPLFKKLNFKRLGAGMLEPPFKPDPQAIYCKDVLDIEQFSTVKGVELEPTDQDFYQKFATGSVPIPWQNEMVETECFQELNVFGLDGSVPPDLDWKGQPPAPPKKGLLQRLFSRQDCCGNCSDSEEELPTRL
Sequence of FYN (P06241 whole entry): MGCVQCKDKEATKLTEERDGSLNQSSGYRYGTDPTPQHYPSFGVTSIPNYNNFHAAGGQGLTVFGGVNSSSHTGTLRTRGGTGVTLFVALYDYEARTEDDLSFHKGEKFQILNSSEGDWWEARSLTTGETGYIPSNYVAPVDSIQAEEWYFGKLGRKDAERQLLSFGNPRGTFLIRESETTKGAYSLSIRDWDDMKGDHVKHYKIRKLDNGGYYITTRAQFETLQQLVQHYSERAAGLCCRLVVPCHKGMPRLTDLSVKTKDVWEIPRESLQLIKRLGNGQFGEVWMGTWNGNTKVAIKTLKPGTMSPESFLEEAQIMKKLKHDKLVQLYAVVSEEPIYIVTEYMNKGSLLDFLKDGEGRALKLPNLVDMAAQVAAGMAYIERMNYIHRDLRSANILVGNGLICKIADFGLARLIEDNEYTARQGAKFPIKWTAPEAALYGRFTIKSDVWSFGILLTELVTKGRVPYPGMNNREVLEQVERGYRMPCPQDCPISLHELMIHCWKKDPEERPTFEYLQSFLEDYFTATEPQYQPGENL
Sequence of PDGFRa (P16234 24-1089): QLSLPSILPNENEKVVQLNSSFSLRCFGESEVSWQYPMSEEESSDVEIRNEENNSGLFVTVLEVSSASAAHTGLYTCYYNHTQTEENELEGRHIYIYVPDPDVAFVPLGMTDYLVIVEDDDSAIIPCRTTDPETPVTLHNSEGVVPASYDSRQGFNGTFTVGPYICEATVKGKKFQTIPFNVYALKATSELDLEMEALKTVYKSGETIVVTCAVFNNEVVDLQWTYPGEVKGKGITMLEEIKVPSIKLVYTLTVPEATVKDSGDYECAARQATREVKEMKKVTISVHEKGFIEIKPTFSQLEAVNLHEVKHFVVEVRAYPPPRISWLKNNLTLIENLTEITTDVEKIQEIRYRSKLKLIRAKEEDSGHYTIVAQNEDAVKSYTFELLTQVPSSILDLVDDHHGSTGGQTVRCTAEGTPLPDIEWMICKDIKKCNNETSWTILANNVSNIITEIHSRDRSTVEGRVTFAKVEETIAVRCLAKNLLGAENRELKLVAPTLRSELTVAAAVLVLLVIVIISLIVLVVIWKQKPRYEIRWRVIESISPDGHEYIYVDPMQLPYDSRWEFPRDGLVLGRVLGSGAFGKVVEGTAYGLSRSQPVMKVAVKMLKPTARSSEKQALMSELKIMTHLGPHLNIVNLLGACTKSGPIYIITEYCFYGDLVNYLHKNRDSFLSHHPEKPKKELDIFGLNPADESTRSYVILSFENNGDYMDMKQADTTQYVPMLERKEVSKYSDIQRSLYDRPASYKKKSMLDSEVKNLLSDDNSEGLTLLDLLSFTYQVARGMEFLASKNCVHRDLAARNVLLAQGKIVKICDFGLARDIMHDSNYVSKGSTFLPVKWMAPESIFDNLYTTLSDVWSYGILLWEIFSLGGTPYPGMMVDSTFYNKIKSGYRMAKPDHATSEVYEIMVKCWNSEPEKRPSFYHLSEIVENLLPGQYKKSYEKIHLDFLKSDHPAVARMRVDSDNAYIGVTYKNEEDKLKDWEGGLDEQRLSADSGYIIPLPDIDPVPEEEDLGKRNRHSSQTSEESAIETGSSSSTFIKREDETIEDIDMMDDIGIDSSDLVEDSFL
Sequence of MSK1/RPS6KA5 (O75582 whole entry): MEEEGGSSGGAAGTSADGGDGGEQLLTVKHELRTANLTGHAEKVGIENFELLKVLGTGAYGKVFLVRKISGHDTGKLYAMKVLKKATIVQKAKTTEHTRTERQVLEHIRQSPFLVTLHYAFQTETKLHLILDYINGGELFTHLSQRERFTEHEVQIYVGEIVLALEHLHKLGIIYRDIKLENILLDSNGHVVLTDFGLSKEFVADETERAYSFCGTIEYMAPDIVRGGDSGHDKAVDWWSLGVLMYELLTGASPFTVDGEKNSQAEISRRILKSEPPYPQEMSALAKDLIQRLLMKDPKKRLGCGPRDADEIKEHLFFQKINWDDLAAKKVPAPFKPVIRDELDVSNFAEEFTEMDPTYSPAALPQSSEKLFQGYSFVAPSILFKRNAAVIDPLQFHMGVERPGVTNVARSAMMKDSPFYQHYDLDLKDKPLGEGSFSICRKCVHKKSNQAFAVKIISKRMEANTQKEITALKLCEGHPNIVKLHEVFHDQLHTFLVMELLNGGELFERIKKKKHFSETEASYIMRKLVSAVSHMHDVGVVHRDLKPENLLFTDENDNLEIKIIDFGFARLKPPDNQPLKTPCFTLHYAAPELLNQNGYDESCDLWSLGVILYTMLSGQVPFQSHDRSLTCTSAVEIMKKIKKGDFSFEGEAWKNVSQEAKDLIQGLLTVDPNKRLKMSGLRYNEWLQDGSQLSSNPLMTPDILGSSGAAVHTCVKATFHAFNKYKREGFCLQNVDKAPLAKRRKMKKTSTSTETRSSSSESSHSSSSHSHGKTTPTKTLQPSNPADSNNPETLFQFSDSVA

In the case of COc1cc(-c2cncc(-c3ccc(N4CCN(C)CC4)cc3)c2C)cc(F)c1C(N)=O [Compound 26a, 2-Fluoro-6-methoxy-4-(4-methyl-5-(4-(4-methylpiperazin-1-yl)phenyl)pyridin-3-yl)benzamide], the remaining activity at 1 µM (CK1g2) is reported as 78%, the remaining activity at 1 µM (MSK1/RPS6KA5) is reported as 87.1% and the “% enzyme activity” value (FYN) is reported as 97.69%. For the same compound, the “% enzyme activity” value (GRK5) was 99.06%, the remaining activity at 1 µM (PKA) was 97.9% and the remaining activity at 1 µM (CK1epsilon) was 93.8%. For the same compound, the remaining activity at 1 µM (GRK6) was 109%, the “% enzyme activity” value (PDGFRa) was 81.22% and the remaining activity at 1 µM (PKAcg) was 94.1%. For the same compound, the “% enzyme activity” value (SGK2) was 100.43%, the “% enzyme activity” value (ALK4/ACVR1B) was 68.79% and the remaining activity at 1 µM (ALK4/ACVR1B) was 68.8%. For the same compound, the remaining activity at 1 µM (GCK/MAP4K2) was 61.8%, the remaining activity at 1 µM (PKCzeta) was 91.2% and the “% enzyme activity” value (JNK3) was 93.66%.
COc1cc(-c2cncc(-c3ccc(N4C[C@@H](C)N(C)[C@@H](C)C4)cc3)c2C)cc(F)c1C(N)=O [Compound 26c, 2-Fluoro-6-methoxy-4-(4-methyl-5-(4-((3R,5S)-3,4,5-trimethylpiperazin-1-yl)phenyl)pyridin-3-yl)benzamide] was tested, and the remaining activity at 1 µM (CK1g2) was 87%, the remaining activity at 1 µM (MSK1/RPS6KA5) was 90.5% and the “% enzyme activity” value (FYN) was 96.30%. The “% enzyme activity” value (GRK5) was 91.62%, the remaining activity at 1 µM (PKA) was 96.9% and the remaining activity at 1 µM (CK1epsilon) was 94.7%. For the same compound, the remaining activity at 1 µM (GRK6) was 97.1%, the “% enzyme activity” value (PDGFRa) was 81.08% and the remaining activity at 1 µM (PKAcg) was 101%. The “% enzyme activity” value (SGK2) was 100.91%, the “% enzyme activity” value (ALK4/ACVR1B) was 81.71% and the remaining activity at 1 µM (ALK4/ACVR1B) was 82.4%. For the same compound, the remaining activity at 1 µM (GCK/MAP4K2) was 75.4%, the remaining activity at 1 µM (PKCzeta) was 92.5% and the “% enzyme activity” value (JNK3) was 100.92%.
